1 compound from article PMC5218480 (PLoS ONE, 2017) can be followed below.

For this assay, the system named is MV-4-11 cells. In words: Gene expression microarray analysis (Affymetrix PrimeView) and GSEA. Format: cell-based, human. Further details: RFU PODN (11730768_x_at) / Fold change /veh PODN (11730768_x_at) / RFU LINC00158 (11744669_a_at) / Fold change /veh LINC00158 (11744669_a_at) / RFU DUSP10 (11751237_a_at) / Fold change /veh DUSP10 (11751237_a_at) / RFU ID3 (11757404_x_at) / Fold change /veh ID3 (11757404_x_at) / RFU PLEKHG5 (11737974_s_at) / Fold change /veh PLEKHG5 (11737974_s_at) / RFU LRRC4B (11730491_at) / Fold change /veh LRRC4B (11730491_at) / RFU GIMAP4 (11747438_a_at) / Fold change /veh GIMAP4 (11747438_a_at) / RFU KRT8 (11758183_x_at) / Fold change /veh KRT8 (11758183_x_at) / RFU CNN1 (11734310_a_at) / Fold change /veh CNN1 (11734310_a_at) / RFU VPS37D (11726825_at) / Fold change /veh VPS37D (11726825_at) / RFU C10orf10 (11716522_x_at) / Fold change /veh C10orf10 (11716522_x_at) / RFU KIR2DL2 /// KIR2DL4 /// KIR2DL5A /// KIR2DL5B /// KIR2DS1 /// KIR2DS2 /// KIR2DS3 /// KIR2DS4 /// KIR3DL3 /// KIR3DL3 /// KIR3DS1 (11738374_at) / Fold change /veh KIR2DL2 /// KIR2DL4 /// KIR2DL5A /// KIR2DL5B /// KIR2DS1 /// KIR2DS2 /// KIR2DS3 /// KIR2DS4 /// KIR3DL3 /// KIR3DL3 /// KIR3DS1 (11738374_at) / RFU C1QL1 (11718748_at) / Fold change /veh C1QL1 (11718748_at) / RFU TMPRSS4 (11747572_a_at) / Fold change /veh TMPRSS4 (11747572_a_at) / RFU HAMP (11756126_x_at) / Fold change /veh HAMP (11756126_x_at) / RFU RNFT2 (11725882_a_at) / Fold change /veh RNFT2 (11725882_a_at) / RFU NR4A2 (11747474_a_at) / Fold change /veh NR4A2 (11747474_a_at) / RFU ABCC12 (11746883_a_at) / Fold change /veh ABCC12 (11746883_a_at) / RFU TMEM136 (11760407_x_at) / Fold change /veh TMEM136 (11760407_x_at) / RFU CLDN22 /// WWC2 (11732394_at) / Fold change /veh CLDN22 /// WWC2 (11732394_at) / RFU HLA-DPB1 (11760878_x_at) / Fold change /veh HLA-DPB1 (11760878_x_at) / RFU SPINT1 (11716480_a_at) / Fold change /veh SPINT1 (11716480_a_at) / RFU GAP43 (11754022_s_at) / Fold change /veh GAP43 (11754022_s_at) / RFU A4GNT (11735810_at) / Fold change /veh A4GNT (11735810_at) / RFU PRB3 (11715151_x_at) / Fold change /veh PRB3 (11715151_x_at) / RFU TUBB4B (11761932_at) / Fold change /veh TUBB4B (11761932_at) / RFU CAPN14 (11732068_a_at) / Fold change /veh CAPN14 (11732068_a_at) / RFU TMCC2 (11721928_a_at) / Fold change /veh TMCC2 (11721928_a_at) / RFU IRGQ (11745062_a_at) / Fold change /veh IRGQ (11745062_a_at) / RFU FAM174B (11720279_a_at) / Fold change /veh FAM174B (11720279_a_at) / RFU TMPRSS4 (11748680_a_at) / Fold change /veh TMPRSS4 (11748680_a_at) / RFU FAM212B (11763350_a_at) / Fold change /veh FAM212B (11763350_a_at) / RFU PLEKHG5 (11743358_a_at) / Fold change /veh PLEKHG5 (11743358_a_at) / RFU ZSCAN30 (11745921_a_at) / Fold change /veh ZSCAN30 (11745921_a_at) / RFU CMKLR1 (11741424_a_at) / Fold change /veh CMKLR1 (11741424_a_at) / RFU LOC101060620 /// MAPK8IP1 (11723275_at) / Fold change /veh LOC101060620 /// MAPK8IP1 (11723275_at) / RFU SPTSSB (11747773_x_at) / Fold change /veh SPTSSB (11747773_x_at) / RFU PRSS12 (11739890_at) / Fold change /veh PRSS12 (11739890_at) / RFU BIN1 (11741810_x_at) / Fold change /veh BIN1 (11741810_x_at) / RFU WNT11 (11732464_a_at) / Fold change /veh WNT11 (11732464_a_at) / RFU C10orf10 (11716521_a_at) / Fold change /veh C10orf10 (11716521_a_at) / RFU C5orf56 (11738089_at) / Fold change /veh C5orf56 (11738089_at) / RFU CYB561 (11721691_x_at) / Fold change /veh CYB561 (11721691_x_at) / RFU ANKRD19P (11752326_a_at) / Fold change /veh ANKRD19P (11752326_a_at) / RFU OR2T12 /// OR2T33 /// OR2T8 (11738714_s_at) / Fold change /veh OR2T12 /// OR2T33 /// OR2T8 (11738714_s_at) / RFU VCAN (11748164_a_at) / Fold change /veh VCAN (11748164_a_at) / RFU JSRP1 (11732532_at) / Fold change /veh JSRP1 (11732532_at) / RFU KRTAP10-11 (11738290_x_at) / Fold change /veh KRTAP10-11 (11738290_x_at) / RFU MYO3A (11730013_a_at) / Fold change /veh MYO3A (11730013_a_at) / RFU EBF3 (11725865_a_at) / Fold change /veh EBF3 (11725865_a_at) / RFU CAMK2N1 (11719241_x_at) / Fold change /veh CAMK2N1 (11719241_x_at) / RFU C5orf56 (11738088_a_at) / Fold change /veh C5orf56 (11738088_a_at) / RFU OLFML3 (11715873_a_at) / Fold change /veh OLFML3 (11715873_a_at) / RFU LOC100653217 /// NTM (11731650_a_at) / Fold change /veh LOC100653217 /// NTM (11731650_a_at) / RFU MAPK11 (11762145_a_at) / Fold change /veh MAPK11 (11762145_a_at) / RFU FIZ1 (11724087_x_at) / Fold change /veh FIZ1 (11724087_x_at) / RFU OASL (11726364_x_at) / Fold change /veh OASL (11726364_x_at) / RFU SOX15 (11748057_x_at) / Fold change /veh SOX15 (11748057_x_at) / RFU CD79A (11719716_a_at) / Fold change /veh CD79A (11719716_a_at) / RFU HIST1H1D (11736915_at) / Fold change /veh HIST1H1D (11736915_at) / RFU CASKIN2 (11723855_a_at) / Fold change /veh CASKIN2 (11723855_a_at) / RFU LOC730098 (11760151_x_at) / Fold change /veh LOC730098 (11760151_x_at) / RFU OR4N2 (11742367_at) / Fold change /veh OR4N2 (11742367_at) / RFU PRRT2 (11749266_a_at) / Fold change /veh PRRT2 (11749266_a_at) / RFU SNX32 (11753110_a_at) / Fold change /veh SNX32 (11753110_a_at) / RFU CDHR5 (11726645_a_at) / Fold change /veh CDHR5 (11726645_a_at) / RFU RCAN1 (11760418_a_at) / Fold change /veh RCAN1 (11760418_a_at) / RFU FAM167A (11723789_a_at) / Fold change /veh FAM167A (11723789_a_at) / RFU FAM26E (11764081_at) / Fold change /veh FAM26E (11764081_at) / RFU ISYNA1 (11749810_s_at) / Fold change /veh ISYNA1 (11749810_s_at) / RFU ACY1 (11761880_at) / Fold change /veh ACY1 (11761880_at) / RFU 11764098_at / Fold change /veh 11764098_at / RFU SAMD14 (11745864_x_at) / Fold change /veh SAMD14 (11745864_x_at) / RFU NPB (11741838_a_at) / Fold change /veh NPB (11741838_a_at) / RFU TMPRSS6 (11731388_a_at) / Fold change /veh TMPRSS6 (11731388_a_at) / RFU KRTAP10-2 (11738614_at) / Fold change /veh KRTAP10-2 (11738614_at) / RFU ARHGAP8 /// PRR5-ARHGAP8 (11727945_x_at) / Fold change /veh ARHGAP8 /// PRR5-ARHGAP8 (11727945_x_at) / RFU KRTAP5-7 /// NADSYN1 (11734609_at) / Fold change /veh KRTAP5-7 /// NADSYN1 (11734609_at) / RFU RASL12 (11751679_a_at) / Fold change /veh RASL12 (11751679_a_at) / RFU CDKN2B (11736163_a_at) / Fold change /veh CDKN2B (11736163_a_at) / RFU PRF1 (11729649_at) / Fold change /veh PRF1 (11729649_at) / RFU, ZNF638 /// ZNF638-IT1 / Fold change vs veh, ZNF638 /// ZNF638-IT1 / RFU, PANK3 / Fold change vs veh, PANK3 / RFU, SH3YL1 / Fold change vs veh, SH3YL1 / RFU, ZEB2 / Fold change vs veh, ZEB2 / RFU, NRIP1 / Fold change vs veh, NRIP1 / RFU, PTTG1IP / Fold change vs veh, PTTG1IP / RFU, CAPN2 / Fold change vs veh, CAPN2 / RFU, MED14 / Fold change vs veh, MED14 / RFU, SNORA58 / Fold change vs veh, SNORA58 / RFU, C1orf63 / Fold change vs veh, C1orf63 / RFU, LRRFIP1 / Fold change vs veh, LRRFIP1 / RFU, NDUFAF7 / Fold change vs veh, NDUFAF7 / RFU, SLC12A2 / Fold change vs veh, SLC12A2 / RFU, IBTK / Fold change vs veh, IBTK / RFU, ESF1 / Fold change vs veh, ESF1 / Fold change vs veh, TMEM50B / RFU, TAOK1 / Fold change vs veh, TAOK1 / RFU, ACBD3 / Fold change vs veh, ACBD3 / RFU, TMA16 / Fold change vs veh, TMA16 / RFU, RWDD3 / Fold change vs veh, RWDD3 / RFU, BCAT1 / Fold change vs veh, BCAT1 / RFU, EDEM3 / Fold change vs veh, EDEM3 / RFU, TMEM33 / Fold change vs veh, TMEM33 / RFU, WDR75 / Fold change vs veh, WDR75 / RFU, AHCTF1 / Fold change vs veh, AHCTF1 / RFU, TFRC / Fold change vs veh, TFRC / RFU, ZDHHC17 / Fold change vs veh, ZDHHC17 / RFU, NOM1 / Fold change vs veh, NOM1 / RFU, ARL8B / Fold change vs veh, ARL8B / RFU, ZBTB11 / Fold change vs veh, ZBTB11 / RFU, TAMM41 / Fold change vs veh, TAMM41 / RFU, KIAA1704 /// LOC100996395 / Fold change vs veh, KIAA1704 /// LOC100996395 / RFU, ING1 / Fold change vs veh, ING1 / RFU, TRMT61B / Fold change vs veh, TRMT61B / RFU, FUBP3 / Fold change vs veh, FUBP3 / RFU, TP53 / Fold change vs veh, TP53 / RFU, TNKS2 / Fold change vs veh, TNKS2 / RFU, ZFP14 / Fold change vs veh, ZFP14 / RFU, ACTR2 / Fold change vs veh, ACTR2 / RFU, PPP3R1 / Fold change vs veh, PPP3R1 / RFU, PIK3R1 / Fold change vs veh, PIK3R1 / RFU, HNRNPA1 / Fold change vs veh, HNRNPA1 / RFU, RNF170 / Fold change vs veh, RNF170 / RFU, ZNF28 / Fold change vs veh, ZNF28 / RFU, RNGTT / Fold change vs veh, RNGTT / RFU, OGT / Fold change vs veh, OGT / RFU, BRD1 / Fold change vs veh, BRD1 / RFU, MARS / Fold change vs veh, MARS / RFU, ZNF655 / Fold change vs veh, ZNF655 / RFU, FAHD1 / Fold change vs veh, FAHD1 / RFU, BDP1 / Fold change vs veh, BDP1 / RFU, LRRCC1 / Fold change vs veh, LRRCC1 / RFU, ARID1A / Fold change vs veh, ARID1A / RFU, ZNF146 / Fold change vs veh, ZNF146 / RFU, ZNF330 / Fold change vs veh, ZNF330 / RFU, GPN3 / Fold change vs veh, GPN3 / RFU, C9orf123 / Fold change vs veh, C9orf123 / RFU, N4BP2L2 / Fold change vs veh, N4BP2L2 / RFU, ARFIP1 / Fold change vs veh, ARFIP1 / RFU, FAM179B / Fold change vs veh, FAM179B / RFU, BCL10 / Fold change vs veh, BCL10 / RFU, UHRF1BP1L / Fold change vs veh, UHRF1BP1L / RFU, BET1 / Fold change vs veh, BET1 / RFU, CNOT2 / Fold change vs veh, CNOT2 / RFU, ZNF268 / Fold change vs veh, ZNF268 / Fold change vs veh, ZNF507 / RFU, DGCR2 / Fold change vs veh, DGCR2 / RFU, WDSUB1 / Fold change vs veh, WDSUB1 / Fold change vs veh, HSP90B1 /// MIR3652 / RFU, ADSS / Fold change vs veh, ADSS / RFU, GK / Fold change vs veh, GK / RFU, ZNF148 / Fold change vs veh, ZNF148 / RFU, TAF9 / Fold change vs veh, TAF9 / RFU, SLC1A5 / Fold change vs veh, SLC1A5 / RFU, SLMO2 / Fold change vs veh, SLMO2 / RFU, ABCC4 / Fold change vs veh, ABCC4 / RFU, LOC101060439 /// RAP1B / Fold change vs veh, LOC101060439 /// RAP1B / RFU, RFX7 / Fold change vs veh, RFX7 / RFU, GTPBP10 / Fold change vs veh, GTPBP10 / RFU, CNEP1R1 / Fold change vs veh, CNEP1R1 / RFU, BIVM-ERCC5 /// ERCC5 / Fold change vs veh, BIVM-ERCC5 /// ERCC5 / RFU, ILF3 / Fold change vs veh, ILF3 / RFU 11762660_at / Fold change /veh 11762660_at / RFU VCAN (11757783_s_at) / Fold change /veh VCAN (11757783_s_at) / RFU DDX43 (11728927_at) / Fold change /veh DDX43 (11728927_at) / RFU KRT8 (11758188_x_at) / Fold change /veh KRT8 (11758188_x_at) / RFU NKD1 (11759106_at) / Fold change /veh NKD1 (11759106_at) / RFU SRD5A1 (11742802_a_at) / Fold change /veh SRD5A1 (11742802_a_at) / RFU TPSAB1 /// TPSB2 (11721975_s_at) / Fold change /veh TPSAB1 /// TPSB2 (11721975_s_at) / RFU GSTM3 (11746129_a_at) / Fold change /veh GSTM3 (11746129_a_at) / RFU IL23R (11737362_x_at) / Fold change /veh IL23R (11737362_x_at) / RFU TMEM51 (11727254_a_at) / Fold change /veh TMEM51 (11727254_a_at) / RFU PIWIL2 (11732686_x_at) / Fold change /veh PIWIL2 (11732686_x_at) / RFU ORM1 (11744905_x_at) / Fold change /veh ORM1 (11744905_x_at) / RFU CCDC152 (11743942_at) / Fold change /veh CCDC152 (11743942_at) / RFU ECM1 (11717891_a_at) / Fold change /veh ECM1 (11717891_a_at) / RFU IL23R (11748794_a_at) / Fold change /veh IL23R (11748794_a_at) / RFU TNFAIP8L3 (11732012_x_at) / Fold change /veh TNFAIP8L3 (11732012_x_at) / RFU MBOAT4 (11741988_at) / Fold change /veh MBOAT4 (11741988_at) / RFU 11764193_at / Fold change /veh 11764193_at / RFU TMEM53 (11763286_at) / Fold change /veh TMEM53 (11763286_at) / RFU MAGEB2 (11727129_at) / Fold change /veh MAGEB2 (11727129_at) / RFU TMEM200A (11744735_a_at) / Fold change /veh TMEM200A (11744735_a_at) / RFU CCDC152 (11751479_a_at) / Fold change /veh CCDC152 (11751479_a_at) / RFU FAM211A (11726209_a_at) / Fold change /veh FAM211A (11726209_a_at) / RFU RGS16 (11746705_a_at) / Fold change /veh RGS16 (11746705_a_at) / RFU VCAN (11755009_s_at) / Fold change /veh VCAN (11755009_s_at) / RFU RHOB (11743442_s_at) / Fold change /veh RHOB (11743442_s_at) / RFU RGS16 (11720943_a_at) / Fold change /veh RGS16 (11720943_a_at) / RFU RGS16 (11720944_at) / Fold change /veh RGS16 (11720944_at) / RFU, VPS4B / Fold change vs veh, VPS4B / RFU, CREB1 / Fold change vs veh, CREB1 / RFU, DNAJC13 / Fold change vs veh, DNAJC13 / RFU, GNAQ / Fold change vs veh, GNAQ / RFU, CDK5R1 / Fold change vs veh, CDK5R1 / RFU, ZRANB3 / Fold change vs veh, ZRANB3 / RFU, CUL4A / Fold change vs veh, CUL4A / RFU, CCNY / Fold change vs veh, CCNY / RFU, UFL1 / Fold change vs veh, UFL1 / RFU, COG3 / Fold change vs veh, COG3 / RFU, DIAPH2 / Fold change vs veh, DIAPH2 / RFU, SKA2 / Fold change vs veh, SKA2 / RFU, AFF3 / Fold change vs veh, AFF3 / RFU, LMF1 / Fold change vs veh, LMF1 / RFU, IPO11 / Fold change vs veh, IPO11 / RFU, DFFB / Fold change vs veh, DFFB / RFU, FOXP1 / Fold change vs veh, FOXP1 / RFU, CARD8 / Fold change vs veh, CARD8 / RFU, STRN3 / Fold change vs veh, STRN3 / RFU, ADK / Fold change vs veh, ADK / RFU, RASSF2 / Fold change vs veh, RASSF2 / RFU, WIPF1 / Fold change vs veh, WIPF1 / RFU, LARP1B / Fold change vs veh, LARP1B / RFU, RASA1 / Fold change vs veh, RASA1 / RFU, RB1 / Fold change vs veh, RB1 / RFU, PPFIA1 / Fold change vs veh, PPFIA1 / RFU, MAT2A / Fold change vs veh, MAT2A / RFU, CCT5 / Fold change vs veh, CCT5 / RFU, WDR92 / Fold change vs veh, WDR92 / RFU, CUX1 / Fold change vs veh, CUX1 / RFU, TTC7A / Fold change vs veh, TTC7A / RFU, TMEM135 / Fold change vs veh, TMEM135 / RFU, DEPTOR / Fold change vs veh, DEPTOR / RFU, CPM / Fold change vs veh, CPM / RFU, DNAJB6 / Fold change vs veh, DNAJB6 / RFU, CACNA2D3 / Fold change vs veh, CACNA2D3 / RFU, DTX4 / Fold change vs veh, DTX4 / RFU, TFCP2 / Fold change vs veh, TFCP2 / RFU, GMCL1 /// GMCL1P1 / Fold change vs veh, GMCL1 /// GMCL1P1 / RFU, AEBP2 / Fold change vs veh, AEBP2 / RFU, SNHG1 /// SNORD22 /// SNORD25 /// SNORD26 /// SNORD27 /// SNORD28 /// SNORD29 /// SNORD31 / Fold change vs veh, SNHG1 /// SNORD22 /// SNORD25 /// SNORD26 /// SNORD27 /// SNORD28 /// SNORD29 /// SNORD31 / Fold change (Aza/veh), C12orf56 (ProbeSet 11735607_a_at) / Fold change (ACY-1035/veh), C12orf56 (ProbeSet 11735607_a_at) / Fold change (Aza/veh), FGFR1OP (ProbeSet 11751329_s_at) / Fold change (ACY-1035/veh), FGFR1OP (ProbeSet 11751329_s_at) / Fold change (Aza/veh), VPS36 (ProbeSet 11739960_a_at) / Fold change (ACY-1035/veh), VPS36 (ProbeSet 11739960_a_at) / RFU SYPL1 (11715823_x_at) / Fold change /veh SYPL1 (11715823_x_at) / RFU IGFBP7 (11715501_s_at) / Fold change /veh IGFBP7 (11715501_s_at) / RFU REEP3 (11722064_at) / Fold change /veh REEP3 (11722064_at) / RFU IGLL1 (11728026_x_at) / Fold change /veh IGLL1 (11728026_x_at): dose or concentration left out as unconfirmed. The note with it: MV-4-11 cells, 48 hours.

Turning to `Nc1ncn([C@@H]2O[C@H](CO)[C@@H](O)[C@H]2O)c(=O)n1` [azacitidine], the “Fold change /veh CNN1 (11734310_a_at)” value was 1.15.
